Reference: patent publication US20110038885A1, “CHEMOKINE ANALOGS” (priority 2007, published 2011)

Legend:
[1] = test system: MCP-1; assay: In vitro chemotaxis (trans-well migration) v MCP-1; assay type: cell-based, human
Method in brief: (§1)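 Trans-well migration toward IL-8 or MCP-1 placed below, with agent added to THP-1 cells (10^4-10^6) in the top well and incubation at 37° C (e.g. 4 hours). MTT absorbance at 595 nm, interpolated on a cell standard curve, gives migrated cell numbers; TGFβ-type negative control and cytotoxicity check included.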

[2] = Half-life in rat plasma in vitro; assay type: in vitro ADME; conditions: read-out: T ½ rat plasma in vitro (converted)
[3] = test system: IL-8; assay: In vitro chemotaxis, inhibition v IL-8; assay type: cell-based, human; set-up: concentration or dose not given beside the values
Method in brief: as §1

[4] = Half-life in rat in vivo; conditions: read-out: T ½ rat in vivo

For `CC(C)[C@H](NC(=O)[C@H](Cc1c[nH]c2ccccc12)NC(=O)OC(C)(C)C)C(=O)NC1CCC(=O)NC1=O` (stereo partly drawn) [Example 164, BOC-Trp-Val-α-aminoglutaramide], the EC50 [1] was 20 nM, the half-life [2] was 666 min and the “v IL-8 inhibition (%)” value [3] was 104.4%. The half-life [4] was 33 min.
